Measurements taken from patent US9609868B2, “Alkoximino-substituted anthranilic acid diamides as pesticides” (BAYER CROPSCIENCE AKTIENGESELLSCHAFT, priority 2013, dated 2017).

Experiments:
[1] = log P by HPLC on reversed-phase column (C18), EEC directive 79/831 Annex V.A8; type: physicochemical; settings: HPLC reversed-phase C18, 43° C., data refer to the E isomer
Protocol: The log P values reported in the tables and Preparation Examples above were determined in accordance with EEC directive 79/831 Annex V.A8 by HPLC (High Performance Liquid Chromatography) using a reversed-phase column (C18). Temperature 43° C. The calibration is effected with unbranched alkan-2-ones (having 3 to 16 carbon atoms), for which the log P values are known.

[2] = system: Myzus persicae; assay: Myzus persicae - spray test (MYZUPE); type: in vivo; settings: application rate 100 g/ha, Chinese cabbage leaf disks
Protocol: Myzus persicae—Spray Test (MYZUPE)
Solvent: 78 parts by weight of acetone • • 1.5 parts by weight of dimethylformamide
(§1) Emulsifier: 0.5 parts by weight of alkylaryl polyglycol ether
(§2) To produce a suitable active compound preparation, 1 part by weight of active compound is mixed with the stated amounts of solvent and emulsifier, and the concentrate is diluted with emulsifier-containing water to the desired concentration.
Disks of Chinese cabbage leaves (Brassica pekinensis) infested by all stages of the green peach aphid (Myzus persicae) are sprayed with an active compound preparation of the desired concentration.
After the desired period of time, the efficacy in % is determined. 100% means that all the aphids have been killed; 0% means that none of the aphids have been killed.

[3] = system: Phaedon cochleariae; assay: Phaedon cochleariae - spray test (PHAECO); type: in vivo; settings: application rate 100 g/ha, Chinese cabbage leaf disks
Protocol: Phaedon cochleariae—Spray Test (PHAECO)
(§3) Solvent: 78.0 parts by weight of acetone • • 1.5 parts by weight of dimethylformamide
as §1, §2
After the desired period of time, the efficacy in % is determined. 100% means that all the beetle larvae have been killed; 0% means that no beetle larvae have been killed.

[4] = system: Spodoptera frugiperda; assay: Spodoptera frugiperda - spray test (SPODFR); type: in vivo; settings: application rate 100 g/ha, maize leaf disks
Protocol: Spodoptera frugiperda—Spray Test (SPODFR)
as §3, §1, §2
Leaf disks of maize (Zea mays) are sprayed with an active compound preparation of the desired concentration and, after drying, populated with caterpillars of the armyworm (Spodoptera frugiperda).
After the desired period of time, the efficacy in % is determined. 100% means that all the caterpillars have been killed; 0% means that no caterpillars have been killed.

Row | Structure (SMILES) | log p ([1]; Table A) | efficacy (aphids killed) [2] [%] | efficacy (beetle larvae killed) [3] [%] | efficacy (caterpillars killed) [4] [%] | log p ([1]; Table B) | log p ([1]; Table C)
1 | CON=Cc1cc(C)c(NC(=O)c2cc(C(F)(F)F)nn2-c2ncccc2Cl)c(C(=O)NNC(C)=O)c1 (mixture of isomers) [A-32] | 2.38 | 90 | 100 | 100 | – | –
2 | CON=Cc1cc(C)c(NC(=O)c2cc(OCC(F)(F)F)nn2-c2ncccc2Cl)c(C(=O)NNC(=O)OC)c1 (mixture of isomers) [A-33] | 2.70 | 100 | 100 | 100 | – | –
3 | CON=Cc1cc(C)c(NC(=O)c2cc(OCC(F)F)nn2-c2ncccc2Cl)c(C(=O)NNC(=O)OC)c1 (mixture of isomers) [A-37] | 2.37 | 100 | – | 100 | – | –
4 | CON=Cc1cc(C)c(NC(=O)c2cc(OC)nn2-c2ncccc2Cl)c(C(=O)NNC(=O)OC)c1 (mixture of isomers) [A-38] | 2.00 | – | 100 | 100 | – | –
5 | CON=Cc1cc(C)c(NC(=O)c2cc(OC)nn2-c2ncccc2Cl)c(C(=O)NNC(=O)OC)c1 (mixture of isomers) [A-40] | 2.45 | 90 | – | 100 | – | –
6 | CON=Cc1cc(C)c(NC(=O)c2cc(C(F)(F)F)nn2-c2ncccc2Cl)c(C(=O)NC2CS(=O)(=O)C2)c1 (mixture of isomers) [B-04] | – | 90 | – | 100 | 2.78 | –
7 | CON=Cc1cc(C)c(NC(=O)c2cc(OCC(F)F)nn2-c2ncccc2Cl)c(C(=O)NC2COC2)c1 (mixture of isomers) [B-09] | – | 100 | – | 100 | 2.44 | –
8 | CON=Cc1cc(C)c(NC(=O)c2cc(CF)nn2-c2ncccc2Cl)c(C(=O)NC2COC2)c1 (mixture of isomers) [B-12] | – | – | 100 | – | 2.04 | –
9 | CON=Cc1cc(C)c(NC(=O)c2cc(OC)nn2-c2ncccc2Cl)c(C(=O)NC2CC2)c1 (mixture of isomers) [C-30] | – | – | 100 | 100 | – | 2.97
10 | CON=Cc1cc(C)c(NC(=O)c2cc(OC)nn2-c2ncccc2Cl)c(C(=O)NC(C)C2CC2)c1 (mixture of isomers) [C-31] | – | – | 100 | 100 | – | 3.66
11 | CON=Cc1cc(C)c(NC(=O)c2cc(Br)nn2-c2ncccc2Cl)c(C(=O)N(C)NC(=O)OC)c1 [A-03] | 2.74 | – | 100 | 100 | – | –
12 | CON=Cc1cc(C)c(NC(=O)c2cc(Br)nn2-c2ncccc2Cl)c(C(=O)N(C)NC(=O)Oc2ccccc2)c1 [A-05] | 3.46 | 100 | – | 100 | – | –
13 | CON=Cc1cc(C)c(NC(=O)c2cc(Br)nn2-c2ncccc2Cl)c(C(=O)NNC(=O)OC(C)C)c1 [A-06] | 2.88 | – | 100 | 100 | – | –
14 | CON=Cc1cc(C)c(NC(=O)c2cc(Br)nn2-c2ncccc2Cl)c(C(=O)NNS(C)(=O)=O)c1 [A-09] | 2.30 | 90 | – | 100 | – | –
15 | CCOC(=O)NN(C)C(=O)c1cc(C=NOC)cc(C)c1NC(=O)c1cc(Br)nn1-c1ncccc1Cl [A-10] | 2.97 | 90 | – | 100 | – | –
16 | CON=Cc1cc(C)c(NC(=O)c2cc(Br)nn2-c2ncccc2Cl)c(C(=O)N(NC(C)=O)C(C)=O)c1 [A-11] | 2.67 | 100 | – | 100 | – | –
17 | COCCOC(=O)NN(C)C(=O)c1cc(C=NOC)cc(C)c1NC(=O)c1cc(Br)nn1-c1ncccc1Cl [A-13] | 2.72 | 90 | – | 100 | – | –

Row | Structure (SMILES) | log p ([1]; Table A) | efficacy (aphids killed) [2] [%] | efficacy (beetle larvae killed) [3] [%] | efficacy (caterpillars killed) [4] [%] | log p ([1]; Table B) | log p ([1]; Table C)
18 | CON=Cc1cc(C)c(NC(=O)c2cc(Br)nn2-c2ncccc2Cl)c(C(=O)N(C)NC(C)=O)c1 [A-14] | 2.31 | 90 | – | 100 | – | –
19 | CON=Cc1cc(C)c(NC(=O)c2cc(Br)nn2-c2ncccc2Cl)c(C(=O)NNC(=O)Oc2ccccc2)c1 [A-15] | 3.03 | 90 | – | 100 | – | –
20 | CON=Cc1cc(C)c(NC(=O)c2cc(C(F)(F)F)nn2-c2ncccc2Cl)c(C(=O)NNC(=O)OC(C)C)c1 [A-18] | 3.17 | – | 100 | 100 | – | –
21 | CON=Cc1cc(C)c(NC(=O)c2cc(C(F)(F)F)nn2-c2ncccc2Cl)c(C(=O)N(C)NC(=O)OC(C)C)c1 [A-25] | 3.57 | – | 100 | 100 | – | –
22 | COCCOC(=O)NN(C)C(=O)c1cc(C=NOC)cc(C)c1NC(=O)c1cc(C(F)(F)F)nn1-c1ncccc1Cl [A-27] | 3.05 | – | – | 100 | – | –
23 | C=CCOC(=O)NN(C)C(=O)c1cc(C=NOC)cc(C)c1NC(=O)c1cc(C(F)(F)F)nn1-c1ncccc1Cl [A-28] | 3.41 | – | – | 100 | – | –
24 | CON=Cc1cc(C)c(NC(=O)c2cc(C(F)(F)F)nn2-c2ncccc2Cl)c(C(=O)N(C)NC(C)=O)c1 [A-30] | 2.75 | – | – | 100 | – | –
25 | CON=Cc1cc(C)c(NC(=O)c2cc(C(F)(F)F)nn2-c2ncccc2Cl)c(C(=O)N(C)NS(C)(=O)=O)c1 [A-31] | 2.88 | – | 100 | 100 | – | –
26 | CON=Cc1cc(C)c(NC(=O)c2cc(OC(C)C)nn2-c2ncccc2Cl)c(C(=O)NC2CC2)c1 [C-06] | – | – | 100 | 100 | – | 2.98
27 | CON=Cc1cc(C)c(NC(=O)c2cc(OCC(F)F)nn2-c2ncccc2Cl)c(C(=O)NC(C)C2CC2)c1 (stereo not shown) [C-18] | – | 90 | – | 100 | – | 3.39
28 | CON=Cc1cc(C)c(NC(=O)c2cc(OCC(F)F)nn2-c2ncccc2Cl)c(C(=O)N(C)C)c1 [C-38] | – | – | – | 100 | – | 2.61
29 | COCC(C)NC(=O)c1cc(C=NOC)cc(C)c1NC(=O)c1cc(OCC(F)F)nn1-c1ncccc1Cl (stereo not shown) [C-39] | – | 100 | – | 100 | – | 2.93
30 | C#CCNC(=O)c1cc(C=NOC)cc(C)c1NC(=O)c1cc(OCC(F)F)nn1-c1ncccc1Cl [C-52] | – | 90 | – | 100 | – | 2.78
31 | COCC(C)NC(=O)c1cc(C=NOC)cc(C)c1NC(=O)c1cc(CF)nn1-c1ncccc1Cl (stereo not shown) [C-54] | – | 90 | – | 100 | – | 2.47
32 | CON=Cc1cc(C)c(NC(=O)c2cc(CF)nn2-c2ncccc2Cl)c(C(=O)N(C)C)c1 [C-55] | – | – | – | 100 | – | 2.19
33 | CON=Cc1cc(C)c(NC(=O)c2cc(C(F)F)nn2-c2ncccc2Cl)c(C(=O)N(C)C)c1 [C-61] | – | – | – | 100 | – | 2.47
34 | CNC(=O)c1cc(C=NOC)cc(C)c1NC(=O)c1cc(OC(C)C)nn1-c1ncccc1Cl [C-65] | – | – | 100 | 100 | – | 2.75
